Laboratory results as given in patent US6677488B2, “Substituted biphenyl compounds for the treatment of inflammation” (G.D. Searle & Co., priority 1995, dated 2004).

| melting point | SMILES |
| --- | --- |
| 190.2 to 191.5 °C | NS(=O)(=O)c1ccc(-c2cc(F)c(F)cc2-c2ccc(F)cc2)cc1 [Example 13, 4-[3,4-Difluoro-6-(4-fluorophenyl)phenyl]benzenesulfonamide] |
| 143.5 to 145.5 °C (dec.) | COc1ccc(-c2ccccc2-c2ccc(S(N)(=O)=O)cc2)cc1F [Example 6, 4-[2-(3-Fluoro-4-methoxyphenyl)phenyl]benzenesulfonamide] |
| 136.2 to 136.6 °C | COc1ccc(-c2ccccc2-c2ccc(S(C)(=O)=O)cc2)cc1F [Example 4, 2-Fluoro-1-methoxy-4-[2-[4-(methylsulfonyl)phenyl]phenyl]benzene] |
| 147.5 to 148.5 °C | COc1ccc(-c2cc(F)c(F)cc2-c2ccc(S(C)(=O)=O)cc2)cc1Cl [Example 18, 1-(3-Chloro-4-methoxyphenyl)-4,5-difluoro-2-[4-(methylsulfonyl)phenyl]benzene] |
| 173 to 174 °C | CS(=O)(=O)c1ccc(-c2cc3c(cc2-c2ccc(F)cc2)OCO3)cc1 [Example 17, 5-(4-Fluorophenyl)-6-[4-(methylsulfonyl)phenyl]-1,3-benzodioxole] |
| 138 to 139 °C | Cc1ccc(-c2cc(F)c(F)cc2-c2ccc(S(C)(=O)=O)cc2)cc1Cl [Example 27, 1-(3-Chloro-4-methylphenyl)-4,5-difluoro-2-[4-(methylsulfonyl)phenyl]benzene] |
| 129 to 130 °C | CN(C)c1ccc(-c2cc(F)c(F)cc2-c2ccc(S(C)(=O)=O)cc2)cc1Cl [Example 28, 2-Chloro-4-[4,5-difluoro-2-[4-(methylsulfonyl)phenyl]phenyl]-N,N-dimethylbenzenamine] |
| 120 to 121.8 °C | COc1ccc(-c2cc(F)c(F)cc2-c2ccc(S(N)(=O)=O)cc2)cc1C [Example 39, 4-[4,5-Difluoro-2-(4-methoxy-3-methylphenyl)phenyl]benzenesulfonamide] |
| 162.5 to 162.8 °C | NS(=O)(=O)c1ccc(-c2cc(F)c(F)cc2-c2ccc(F)c(Cl)c2)cc1 [Example 16, 4-[2-(3-Chloro-4-fluorophenyl)-4,5-difluorophenyl]benzenesulfonamide] |
| 167.2 to 167.5 °C | Cc1cc(-c2cc(F)c(F)cc2-c2ccc(S(C)(=O)=O)cc2)ccc1F [Example 31, 1,2-Difluoro-4-(4-fluoro-3-methylphenyl)-5-[4-(methylsulfonyl)phenyl]benzene] |
| 191 to 192.5 °C | NS(=O)(=O)c1ccc(-c2cc3c(cc2-c2ccc(F)cc2)OCO3)cc1 [Example 22, 4-[6-(4-Fluorophenyl)-1,3-benzodioxol-5-yl]benzenesulfonamide] |
| 141.5 to 142.8 °C | Cc1cc(-c2cc(F)c(F)cc2-c2ccc(S(N)(=O)=O)cc2)ccc1Cl [Example 36, 4-[2-(4-Chloro-3-methylphenyl)-4,5-difluorophenyl]benzenesulfonamide] |
| 206.2 to 207 °C | NS(=O)(=O)c1ccc(-c2ccccc2-c2ccc(Cl)cc2)cc1 [Example 3, 4-[2-(4-Chlorophenyl)phenyl]benzenesulfonamide] |
| 139 to 140 °C | Cc1ccc(-c2cc(F)c(F)cc2-c2ccc(S(N)(=O)=O)cc2)cc1Cl [Example 29, 4-[2-(3-Chloro-4-methylphenyl)-4,5-difluorophenyl]benzenesulfonamide] |
| 161.5 to 162.3 °C | COc1ccc(-c2ccccc2-c2ccc(S(C)(=O)=O)cc2)cc1Cl [Example 5, 2-Chloro-1-methoxy-4-[2-[4-(methylsulfonyl)phenyl]phenyl]benzene] |
| 142 to 143 °C | NS(=O)(=O)c1ccc(-c2cc(F)c(F)cc2-c2ccc3c(c2)OCO3)cc1 [Example 26, 4-[2-(1,3-Benzodioxol-5-yl)-4,5-difluorophenyl]benzenesulfonamide] |
| 82 to 83 °C | CS(=O)(=O)c1ccc(-c2cc(F)c(F)cc2-c2ccc3c(c2)OCCO3)cc1 [Example 41] |
| 179.5 to 180.2 °C | COc1ccc(-c2ccccc2-c2ccc(S(N)(=O)=O)cc2)cc1Cl [Example 7, 4-[2-(3-Chloro-4-methoxyphenyl)phenyl]benzenesulfonamide] |
| 202 to 203 °C | NS(=O)(=O)c1ccc(-c2c(F)c(F)c(F)c(F)c2-c2ccc(F)cc2)cc1 [Example 15, 4-[2,3,4,5-Tetrafluoro-6-(4-fluorophenyl)phenyl]benzenesulfonamide] |
| 132.2 to 132.8 °C | COc1ccc(-c2cc(F)c(F)cc2-c2ccc(S(N)(=O)=O)cc2)cc1F [Example 21, 4-[4,5-Difluoro-2-(3-fluoro-4-methoxyphenyl)phenyl]benzenesulfonamide] |
| 187.3 to 188.2 °C | NS(=O)(=O)c1ccc(-c2ccccc2-c2ccc(F)cc2)cc1 [Example 2, 4-[2-(4-Fluorophenyl)phenyl]benzenesulfonamide] |
| 160.5 to 161.5 °C | COc1ccc(-c2cc(F)c(F)cc2-c2ccc(S(C)(=O)=O)cc2)cc1C [Example 35, 1,2-Difluoro-4-(4-methoxy-3-methylpheny)-5-[4-(methylsulfonyl)phenyl]benzene] |
| 193 to 194 °C | CN(C)c1ccc(-c2cc(F)c(F)cc2-c2ccc(S(N)(=O)=O)cc2)cc1Cl [Example 30, 4-[2-[3-Chloro-4-(N,N-dimethylamino)phenyl]-4,5-difluorophenyl]benzenesulfonamide] |
| 145.5 to 146 °C | COc1c(Cl)cc(-c2cc(F)c(F)cc2-c2ccc(S(N)(=O)=O)cc2)cc1Cl [Example 38, 4-[2-(3,5-Dichloro-4-methoxyphenyl)-4,5-difluorophenyl]benzenesulfonamide] |
| 141 to 142.5 °C | Cc1ccc(-c2cc(F)c(F)cc2-c2ccc(S(C)(=O)=O)cc2)cn1 [Example 47, 5-[4,5-Difluoro-4′-(methylsulfonyl)-(1,1′-biphenyl)-2-yl]-2-methylpyridine] |
| 147 to 148 °C | Cc1ccc(-c2cc(F)c(F)cc2-c2ccc(S(C)(=O)=O)cc2)cc1 [Example 23, 1,2-Difluoro-4-(4-methylphenyl)-5-[4-(methylsulfonyl)phenyl]benzene] |
| 70 °C (dec.) | COc1ccc(-c2cc(F)c(F)cc2-c2ccc(S(N)(=O)=O)cc2)cc1Cl [Example 20, 4-[2-(3-Chloro-4-methoxyphenyl)-4,5-difluorophenyl]benzenesulfonamide] |
| 179.5 to 181.1 °C | CS(=O)(=O)c1ccc(-c2ccccc2-c2ccc(F)c(Cl)c2)cc1 [Example 10, 2-Chloro-1-fluoro-4-[2-[4-(methylsulfonyl)phenyl]phenyl]benzene] |
| 140 to 141 °C | COc1ccc(-c2cc(F)c(F)cc2-c2ccc(S(C)(=O)=O)cc2)cc1OC [Example 40, 1,2-Difluoro-4-(3,4-dimethoxypheny)-5-[4-(methylsulfonyl)phenyl]benzene] |
